Reference: patent publication EP1206258B1, “COMPOSITIONS CONTAINING ESTERS FOR TREATING PARASITIC INFESTATIONS OF ORGANISMS” (priority 1999, dated 2001)

What was measured:
Penicillium digitatum = assay: growth inhibition test on SAB agar, P. digitatum; type: cell-based; parameters: key to Growth of P. digitatum: - = No Growth; + = Growth; ++ = Extensive Growth
Procedure: The antifungal activity of ethyl trans-cinnamate against a number of different fungi was investigated by means of in a simple growth inhibition test.
The following quantities of Ethyl trans-Cinnamate were added to Sabourand Dextrose agar (SAB); 50 ml L^-1, 4ml L^-1, 2ml L^-1, 1ml L^-1, 400 µl L^-1, 200 µl L^-1 and 40 µl L^-1. […] These were then autoclaved and poured into standard Petri dishes. […] Duplicate plates of each concentration, plus control plates containing only SAB Agar, where then separately inoculated with, four different species of fungi, these were Aspergillus nidulans, Penicillium digitatum, Rhizopus arrhizus and Fusarium culmorum. Inoculation was carried out using a single stab at the centre of each Petri dish. The plates were then incubated at 30°C for 6 days and daily measurements of mycobial growth where taken every 24 hours.

eggs of L.sericata = assay: in vitro test on hatching of eggs of L.sericata (immersion); parameters: species or system Lucilia sericata; settings: V/V in 2.0% W/V aqueous lecithin
Procedure: A series of in vitro tests were carried out to investigate the effects of the compound trans-cinnamic acid ethyl ester on the hatching of eggs of L.sericata.
A blowfly culture originating from the Central Veterinary Laboratory based in Weybridge, Surrey was used for the tests. None of the original adults had previously been exposed or resistant to insecticides. Eggs aged 10±2 hours of the blowfly were harvested on pig's liver in clusters using a prolene 4/0 paintbrush and examined under the binocular microscope for suitablility. Adult females used to produce these eggs were kept at 20°C, rh 70±5%, with a photoperiod of 8 hours. Groups of 30 eggs were then immediately transferred to a 9-cm Whatman filter paper in a 9-cm plastic petri dish. Two ml of cinnamic acid ethyl ester at concentrations in the range 1.0%; 2.5%; 5.0%; 7.5% and 10.0% V/V was poured gently into the petri dish immersing the eggs. Each concentration was previously prepared by dilution of active compound in a 2.0% W/V aqueous lecithin solution pre-warmed to 20°C. The mixture was sonicated for two minutes. After an exposure time of 1 minute, the test solution was carefully poured off and the eggs recovered individually to a 7ml polythene container in which a filter paper was saturated with pig's liver washings. […] Eggs following treatment were incubated at 25°C, rh 70±2% with a photoperiod of 8 hours duration. Hatching typically occurred within 12 hours of treatment.
Each concentration was replicated twice; controls were treated using only lecithin solution. The whole experiment was repeated using two further exposure times of 30 minutes and 90 minutes respectively.
The data were analysed using fitted curve graphical analysis. […] The data gathered from the experiment with an exposure time of 1 minute was also expressed using the probit transformation.
Fitted curves were used to calculate the concentration required to kill 50% of the eggs, (LC50) using the data obtained after immersing the eggs in solutions ranging from 1.0% to 10.0% V/V. The median lethal concentrations, (LC50) and LC95 concentrations are shown in Table 4 below:- Table 4

Psoroptes cuniculi = assay: in vitro immersion assay on the mite Psoroptes cuniculi; settings: for mites had died: exposed for 24 hours, control 8%
Procedure: A series of in vitro assays were conducted to examine the effects of the compound trans-cinnamic acid ethyl ester on the mite Psoroptes cuniculi. This mite infests rabbits and is very similar to the mite Psoroptes ovis which infests sheep and causes sheep scab.
The mites were taken from the ears of infested rabbits and exposed for 24 hours to the active compound at concentrations of 10, 1 or 0.1 % (V/V). The concentrations were obtained by serial dilution of the compound in 0.05% sodium dodecyl sulphate (SDS).
This is illustrated in Figure 2 of the accompanying drawings.
The LC95 was 6.29% (95% confidence interval 4.98-8.88).
Line (1) represents adult males, line (2) adult females and (3) female nymphs.
Thus, trans-cinnamic acid ethyl ester gives greater than 50% levels of mortality within 24 hours, for all life cycle stages of P. cuniculi after short contact times (1 min) at concentrations of 2.2% (V/V). At one minute contact time, concentrations of greater than 6% (V/V) are required to bring about mortality of greater than 95%. Recent theoretical analysis using simulation modelling (Wall, unpublished) has shown that sustained mortality of greater than 50% per day is required to suppress a growing population of P. ovis.

Guinea Pig = settings: Oral, VPITAR 33(5)48,74; cited from earlier work
[1] = test system: all stages of blow fly and larval life cycle; assay: activity against blow fly and larval stages
Rat = settings: Oral, Russell 1973; cited from earlier work
Aspergillus nidulans = assay: growth inhibition test on SAB agar, A. nidulans; type: cell-based; settings: 50ml L-^1 and higher doses; further experiments, data not shown
Rabbit = settings: Dermal, FRMM; cited from earlier work
[2] = Lethal Concentrations at 1 minute
[3] = Lethal Concentrations at 30 minutes

## CCOC(=O)/C=C/c1ccccc1 [trans-cinnamic acid ethyl ester]
Penicillium digitatum; 1ml L^-1, Day 1
  Growth of P. digitatum: -
Penicillium digitatum; 1ml L^-1, Day 2
  Growth of P. digitatum: -
Penicillium digitatum; 1ml L^-1, Day 3
  Growth of P. digitatum: -
Penicillium digitatum; 1ml L^-1, Day 4
  Growth of P. digitatum: +
Penicillium digitatum; 1ml L^-1, Day 5
  Growth of P. digitatum: +
Penicillium digitatum; 1ml L^-1, Day 6
  Growth of P. digitatum: +
Penicillium digitatum; 2ml L^-1, Day 1
  Growth of P. digitatum: -
Penicillium digitatum; 2ml L^-1, Day 2
  Growth of P. digitatum: -
Penicillium digitatum; 2ml L^-1, Day 3
  Growth of P. digitatum: -
Penicillium digitatum; 2ml L^-1, Day 4
  Growth of P. digitatum: -
Penicillium digitatum; 2ml L^-1, Day 5
  Growth of P. digitatum: -
Penicillium digitatum; 2ml L^-1, Day 6
  Growth of P. digitatum: -
Penicillium digitatum; 4ml L^-1, Day 1
  Growth of P. digitatum: -
Penicillium digitatum; 4ml L^-1, Day 2
  Growth of P. digitatum: -
Penicillium digitatum; 4ml L^-1, Day 3
  Growth of P. digitatum: -
Penicillium digitatum; 4ml L^-1, Day 4
  Growth of P. digitatum: -
Penicillium digitatum; 4ml L^-1, Day 5
  Growth of P. digitatum: -
Penicillium digitatum; 4ml L^-1, Day 6
  Growth of P. digitatum: -
Penicillium digitatum; 40µl L^-1, Day 1
  Growth of P. digitatum: -
Penicillium digitatum; 40µl L^-1, Day 2
  Growth of P. digitatum: ++
Penicillium digitatum; 40µl L^-1, Day 3
  Growth of P. digitatum: ++
Penicillium digitatum; 40µl L^-1, Day 4
  Growth of P. digitatum: ++
Penicillium digitatum; 40µl L^-1, Day 5
  Growth of P. digitatum: ++
Penicillium digitatum; 40µl L^-1, Day 6
  Growth of P. digitatum: ++
Penicillium digitatum; 50ml L-^1 and higher doses, further experiments, data not shown
  duration of complete inhibition of growth: at least 8 days
Penicillium digitatum; 50ml L-^1 level
  inhibition of growth: complete inhibition of growth
Penicillium digitatum; 50 ml L^-1, Day 1
  Growth of P. digitatum: -
Penicillium digitatum; 50 ml L^-1, Day 2
  Growth of P. digitatum: -
Penicillium digitatum; 50 ml L^-1, Day 3
  Growth of P. digitatum: -
Penicillium digitatum; 50 ml L^-1, Day 4
  Growth of P. digitatum: -
Penicillium digitatum; 50 ml L^-1, Day 5
  Growth of P. digitatum: -
Penicillium digitatum; 50 ml L^-1, Day 6
  Growth of P. digitatum: -
Penicillium digitatum; 200µl L^-1, Day 1
  Growth of P. digitatum: -
Penicillium digitatum; 200µl L^-1, Day 2
  Growth of P. digitatum: ++
Penicillium digitatum; 200µl L^-1, Day 3
  Growth of P. digitatum: ++
Penicillium digitatum; 200µl L^-1, Day 4
  Growth of P. digitatum: ++
Penicillium digitatum; 200µl L^-1, Day 5
  Growth of P. digitatum: ++
Penicillium digitatum; 200µl L^-1, Day 6
  Growth of P. digitatum: ++
Penicillium digitatum; 400µl L^-1, Day 1
  Growth of P. digitatum: -
Penicillium digitatum; 400µl L^-1, Day 2
  Growth of P. digitatum: +
Penicillium digitatum; 400µl L^-1, Day 3
  Growth of P. digitatum: ++
Penicillium digitatum; 400µl L^-1, Day 4
  Growth of P. digitatum: ++
Penicillium digitatum; 400µl L^-1, Day 5
  Growth of P. digitatum: ++
Penicillium digitatum; 400µl L^-1, Day 6
  Growth of P. digitatum: ++
Eggs of L.sericata; [2]
  LC50: LC50 2.76%
  LC95: LC95>7.50%
Eggs of L.sericata; [3]
  LC50: LC50 1.78%
  LC95: LC95>5.00%
Eggs of L.sericata; Lethal Concentrations at 90 minutes
  LC50: LC50 0.36%
Psoroptes cuniculi; 0.1% (V/V), same as control (0.05% SDS only)
  LT50: approximately 2.5 days
Psoroptes cuniculi; 24 hours after exposure
  LD 25 Concentration (% V/V): 0.53 % V/V
  LD 50 Concentration (% V/V) (LC50): 2.21 % V/V
  LD 75 Concentration (% V/V): 3.88 % V/V
  LD 95 Concentration (% V/V) (LC95): 6.29 % V/V
Psoroptes cuniculi; concentration 1%
  50% mortality (LT50): 1 days
Psoroptes cuniculi; concentration 10%
  50% mortality (LT50): 0.5 days
Psoroptes cuniculi; 0.1 % (V/V) in 0.05% SDS
  mites had died: 20%
Psoroptes cuniculi; 1 % (V/V) in 0.05% SDS
  mites had died: 74%
Psoroptes cuniculi; 10 % (V/V) in 0.05% SDS
  mites had died: 100%
Psoroptes cuniculi; one minute contact time
  concentrations required to bring about mortality of greater than 95%: greater than 6 % (V/V)
Psoroptes cuniculi; within 24 hours, all life cycle stages, contact time 1 min, 2.2% (V/V)
  levels of mortality: greater than 50%
Guinea Pig
  LDSO: 4000 mg/kg
[1]
  effectiveness against all stages of blow fly and larval life cycle: ineffective
Rat
  LDSO: 7800 mg/kg
Aspergillus nidulans
  duration of complete inhibition of growth: at least 8 days
Rabbit
  LDSO: >5000 mg·kg
